The subject of data set [1] is Fibrosarcoma Wehi-164. The data set can be described thus: Therapy of Wehi-164 fibrosarcoma-bearing mice. The class given is in vivo, mouse. As to conditions: 4 cycles i.v. every 48 h, equimolar doses. Here is the method: Fibrosarcoma Wehi-164 exponentially growing cells were harvested, repeatedly washed and re-suspended in serum-free medium prior to injection. The tumor cells were injected subcutaneously (5×10^6) in the right flank of Balb/c mice. Tumor weights (mg=mm^3) were calculated as follows: (length [mm]×width^2 [mm^2])/2.
Treatment started when tumors reached approximately 100 mg. Mice received 4 cycles of therapy, every 48 h starting from day 5 after tumor cell injection. L19-IL4 (SEQ ID NO:64) was administered i.v. at the dose of 130 μg/mouse; equimolar amounts of KSF-IL4 (130 μg/mouse) (SEQ ID NO:44), KSF-IL10 (150 μg/mouse) (SEQ ID NO:65) and L19-IL10 (150 μg/mouse) (SEQ ID NO:66) were administered. Control mice received sterile vehicle solution (PBS). The results are shown in FIG. 16 (mean tumour weight over time). The number of mice in each treatment group was 3-4.

The test system of data set [2] is CTLL2 cells. The data set can be described thus: CTLL2 cell proliferation bioactivity assay. The class given is cell-based. As to conditions: 24 h; for EC50: CTLL2 cells, 20000 cells/well. The protocol:
The biological activity of murine IL4 was determined by its ability to stimulate the proliferation of CTLL2 cells. […] After incubation at 37° C. for 24 h, cell proliferation was determined with Cell Titer Aqueous One Solution (Promega).

Data set [3] concerns the target T1, EDA domain of fibronectin (Homo sapiens, UniProt P02751).
T1 construct: surface plasmon analysis (BIAcore) on an EDA antigen-coated sensor chip
The data set can be described thus: Surface plasmon analysis (BIAcore) on EDA antigen-coated sensor chip. The class given is binding. From the text: The fusion protein was expressed and purified to homogeneity as described for F8-IL4 above.
For orientation: SPR reads the build-up and loss of mass on a sensor chip optically.

The test system of data set [4] is tumour neovascular structures in murine F9, CT26 and A20 tumours. Put plainly: Immunofluorescence on untreated tumour sections. Set-up: species or system mouse. As to conditions: biotinylated protein on F9, CT26 and A20 tumour sections. From the text: For detection streptavidin-Alexa Fluor 488 and anti-rat-Alexa Fluor 594 (Invitrogen) were used. Slides were mounted with fluorescent mounting medium (Dako) and analyzed with an Axioskop2 mot plus microscope (Zeiss).

The test system of data set [5] is F9 teratocarcinoma. Put plainly: Quantitative biodistribution in F9 tumour-bearing mice. The class given is in vivo, mouse. The note with it: 15 μg radioiodinated protein i.v., 24 hours. The protocol:
The in vivo targeting performance was assessed by quantitative biodistribution where 15 μg of radioiodinated fusion protein was injected i.v. into the lateral tail vein of immunocompetent 11-12 week old female Sv129Ev mice (obtained from Charles River [Germany]), bearing sub-cutaneously grafted F9 tumours (for labelling protocol, see (Pasche et al. 2011)). Mice were sacrificed 24 hours after injection, organs were excised, weighed and radioactivity was measured using a Packard Cobra γ counter.

For data set [6], the system named is endometriotic lesions in Balb/c mice. Put plainly: Endometriosis model in Balb/c mice. Format: in vivo, mouse. The note with it: 200 μg/mouse i.v. days 1, 4, 7; day 15; vs PBS. The protocol:
Endometriosis was induced in sixty eight-week old female Balb/c mice according to the protocol described by Somigliana et al. (1999).
One day after the implantation of endometrial tissue, pairs of mice (who received tissue from the same donor) were treated either with intravenous (i.v.) injections of F8-murine IL4 (200 μg/mouse; SEQ ID NO: 21) or PBS (group 1); or with i.v. injections of KSF-murine IL4 (200 μg/mouse; SEQ ID NO: 44) or PBS (group 2). The same treatment was repeated at days 4 and 7. Mice were sacrificed at day 15.

The subject of data set [7] is A20 lymphoma. The data set can be described thus: Therapy studies in A20 tumour-bearing mice. The note with it: A20, F8-IL4 vs KSF-IL4 study.
Source text: (§1) Data represent mean tumour volumes (±SEM), n=5 mice per group. […] Data represent mean tumour volumes (±SEM), n=5 mice per group.
Differences in tumor volume, % ID/g and Tumor-to-blood ratio between therapeutic groups were compared using Graphpad Prism's repeated measures (mixed model) ANOVA analysis.
For this, as well as the other experiments described below, F9 teratocarcinoma (CRL-1720; ATCC, Molsheim Cedex, France), CT26 colon carcinoma (CRL-2638; ATCC, Molsheim Cedex, France) and A20 lymphoma (TIB-208; ATCC, Molsheim Cedex, France) were grown according to the supplier's protocol and tumour cells implanted subcutaneously in the flank using 25×10^6 cells (F9), 2×10^6 cells (CT26) or 8×10^6 cells (A20). F9 teratocarcinoma cells were implanted into 129/SvEv mice (Charles River, Sulzfeld, Germany), CT26 colon carcinoma cells were implanted into Balb/c mice (Elevage Janvier, Le Genest-St-Isle, France) and A20 lymphoma cells were implanted into Balb/c mice (Elevage Janvier, Le Genest-St-Isle, France). Mice were sacrificed when tumour volumes reached a maximum of 2000 mm^3.
The subject of data set [8] is CT26 colon carcinoma. Put plainly: Therapy studies in CT26 tumour-bearing mice.
Source text: as §1
In the description of the below experiments, data are expressed as the mean (±SEM). Differences in tumor volume, % ID/g and Tumor-to-blood ratio between therapeutic groups were compared using Graphpad Prism's repeated measures (mixed model) ANOVA analysis.
Mice were sacrificed when tumour volumes reached a maximum of 2000 mm^3.
In order to study a second immunocompetent mouse model of cancer, the inventors focused on Balb/c mice (obtained from Elevage Janvier [France]) bearing subcutaneous CT26 tumours of colorectal origin.
Data set [9] has as its system F9 teratocarcinoma. The data set can be described thus: Therapy studies in F9 teratocarcinoma-bearing mice. Format: in vivo, mouse. The note with it: mouse, in vivo. The protocol:
In a dose finding study, F9 tumour-bearing mice were randomly grouped (n=5) and injected intravenously (i.v.) into the lateral tail vein when tumours were clearly palpable. […] The therapeutic antibodies were all dissolved in phosphate buffered saline (PBS) and this buffer was also used in the negative control treatment groups. The mice were monitored daily and tumour volume was measured with a calliper (volume=length×width^2×0.5).

For data set [10], the system named is F9 teratocarcinoma. The data set can be described thus: Biodistribution of F8-hIL4 and F8-hIL4-N284Q in F9 tumour-bearing mice. The class given is in vivo, mouse. As to conditions: 10 μg radioiodinated antibody i.v., 24 hours. Here is the method: 11-12 weeks old female 129/SvEv mice were obtained from Charles River (Sulzfeld, Germany). Tumor cells were implanted subcutaneously in the flank of the mice using 25×10^6 cells.
The in vivo targeting performance of F8-hIL4, and its unglycosylated variant F8-hIL4-N284Q were evaluated in quantitative biodistribution studies. The antibodies were radioiodinated using […] and Chloramine T hydrate according to the protocol of Pasche et al. 2011. 10 μg of each radioiodiated antibody were injected into the lateral tail vein of the mice. Injected mice were sacrificed 24 hours after injection. Organs were then excised and radioactivity was counted in Cobra gamma counter (Packard, Meriden, Conn.).

As usually defined, the EC50 is the concentration needed to bring the measured effect to its halfway point. Read a low EC50 as greater potency.

Positions count from the first letter of the chain named. Names and notes keep the numbering of the source.

T1 sequence (P02751 1727-1814 limits assumed): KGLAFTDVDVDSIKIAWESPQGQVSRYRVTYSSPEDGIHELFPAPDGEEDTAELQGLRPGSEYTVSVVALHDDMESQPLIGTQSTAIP

In the case of “KSF-IL10: KSF antibody (hen egg lysozyme) conjugated to IL10; untargeted IL10”, in data set [1], the “therapeutic activity (tumour weight)” value is “do not promote any significant therapeutic activity”.
In turn, “recombinant IL4: recombinant murine IL4 (eBioscience)” had an EC50 in data set [2] of 0.028 nM.
In the case of “KSF-IL4: antibody KSF (specific to hen egg lysozyme, negative control) in diabody format fused to murine interleukin 4 [reference compound]”, in data set [3], the “affinity for the cognate antigen” value is “retained a high-affinity for the cognate antigen”. The response in [2] was half-maximal at 0.02 nM (EC50). Besides, in data set [2] (CTLL2 proliferation), the biological cytokine activity result is given as “comparable to that of recombinant murine IL4”. In addition, in data set [4], the “recognition of tumour neovascular structures” value is “not”. Also, the “accumulation at the tumour site (% ID/g)” value in data set [5] is on record as “not observed”. Besides, the “therapeutic activity (tumour weight)” value in data set [1] is “do not promote any significant therapeutic activity”. In data set [6], the “number of the endometriotic lesions” value is “did not have a significant effect” and the “volume of the endometriotic lesions” value is “did not have a significant effect”. The “statistical significance, tumour volume vs PBS” value in [7] is “not statistically significant”. Also, the therapeutic performance result in [8] (90 μg i.v. every 48 h) is recorded as “not better than saline”. The “statistical significance, tumour volume vs PBS” value in data set [8] (CT26, F8-IL4 vs KSF-IL4 study) is reported as “not statistically significant”.

B1: F8-IL12: IL12-based immunocytokine: murine IL12 fused to single chain F8 diabody (protein)
chain: MWELEKDVYVVEVDWTPDAPGETVNLTCDTPEEDDITWTSDQRHGVIGSGKTLTITVKEFLDAGQYTCHKGGETLSHSHLLLHKKENGIWSTEILKNFKNKTFLKCEAPNYSGRFTCSWLVQRNMDLKFNIKSSSSSPDSRAVTCGMASLSAEKVTLDQRDYEKYSVSCQEDVTCPTAEETLPIELALEARQQNKYENYSTSFFIRDIIKPDPPKNLQMKPLKNSQVEVSWEYPDSWSTPHSYFSLKFFVRIQRKKEKMKETEEGCNQKGAFLVEKTSTEVQCKGGNVCVQAQDRYYNSSCSKWACVPCRVRSGGGGSGGGGSGGGGSRVIPVSGPARCLSQSRNLLKTTDDMVKTAREKLKHYSCTAEDIDHEDITRDQTSTLKTCLPLELHKNESCLATRETSSTTRGSCLPPQKTSLMMTLCLGSIYEDLKMYQTEFQAINAALQNHNHQQIILDKGMLVAIDELMQSLNHNGETLRQKPPVGEADPYRVKMKLCILLHAFSTRVVTINRVMGYLSSAGSADGGEVQLLESGGGLVQPGGSLRLSCAASGFTFSLFTMSWVRQAPGKGLEWVSAISGSGGSTYYADSVKGRFTISRDNSKNTLYLQMNSLRAEDTAVYYCAKSTHLYLFDYWGQGTLVTVSSGGSGGEIVLTQSPGTLSLSPGERATLSCRASQSVSMPFLAWYQQKPGQAPRLLIYGASSRATGIPDRFSGSGSGTDFTLTISRLEPEDFAVYYCQQMRGRPPTFGQGTKVEIKSSSSGSSSSGSSSSGEVQLLESGGGLVQPGGSLRLSCAASGFTFSLFTMSWVRQAPGKGLEWVSAISGSGGSTYYADSVKGRFTISRDNSKNTLYLQMNSLRAEDTAVYYCAKSTHLYLFDYWGQGTLVTVSSGGSGGEIVLTQSPGTLSLSPGERATLSCRASQSVSMPFLAWYQQKPGQAPRLLIYGASSRATGIPDRFSGSGSGTDFTLTISRLEPEDFAVYYCQQMRGRPPTFGQGTKVEIK
modifications: Synthetic sequence Amino acid sequence of (murine)IL12-F8-F8 of PCT/EP2014/053998
notes: IL12-based immunocytokine: murine IL12 fused to single chain F8 diabody
For B1, in data set [9], the single-agent therapeutic activity entry was “potent single-agent therapeutic activity”.

B2: F8-hIL4: F8 diabody fused to human IL4, glycosylated (protein)
chain: EVQLLESGGGLVQPGGSLRLSCAASGFTFSLFTMSWVRQAPGKGLEWVSAISGSGGSTYYADSVKGRFTISRDNSKNTLYLQMNSLRAEDTAVYYCAKSTHLYLFDYWGQGTLVTVSSGGSGGEIVLTQSPGTLSLSPGERATLSCRASQSVSMPFLAWYQQKPGQAPRLLIYGASSRATGIPDRFSGSGSGTDFTLTISRLEPEDFAVYYCQQMRGRPPTFGQGTKVEIKSSSSGSSSSGSSSSGHKCDITLQEIIKTLNSLTEQKTLCTELTVTDIFAASKNTTEKETFCRAATVLRQFYSHHEKDTRCLGATAQQFHRHKQLIRFLKRLDRNLWGLAGLNSCPVKEANQSTLENFLERLKTIMREKYSKCSS
modifications: Synthetic sequence Amino acid sequence of F8 - (human) IL4 of PCT/EP2014/053998
notes: F8 diabody fused to human IL4, glycosylated
Regarding B2, the “accumulation at the tumor site (% ID/g)” value in data set [10] is recorded as “comparable preferential accumulation at the tumor site”.

B3: F8-hIL4-N284Q: unglycosylated F8-human IL4 mutant, asparagine 284 substituted with glutamine (protein)
chain: B2 chain with N284Q
modifications: Synthetic sequence Amino acid sequence of F8 - (human) IL4 N284Q mutant of PCT/EP2014/053998
notes: unglycosylated F8-human IL4 mutant, asparagine 284 substituted with glutamine
For B3, the “accumulation at the tumor site (% ID/g)” value in data set [10] was “comparable preferential accumulation at the tumor site”.

B4: L19-IL4: L19 diabody (anti-EDB of fibronectin) fused to murine IL4 (protein)
chain: EVQLLESGGGLVQPGGSLRLSCAASGFTFSSFSMSWVRQAPGKGLEWVSSISGSSGTTYYADSVKGRFTISRDNSKNTLYLQMNSLRAEDTAVYYCAKPFPYFDYWGQGTLVTVSSGGSGGEIVLTQSPGTLSLSPGERATLSCRASQSVSSSFLAWYQQKPGQAPRLLIYYASSRATGIPDRFSGSGSGTDFTLTISRLEPEDFAVYYCQQTGRIPPTFGQGTKVEIKSSSSGSSSSGSSSSGHIHGCDKNHLREIIGILNEVTGEGTPCTEMDVPNVLTATKNTTESELVCRASKVLRIFYLKHGKTPCLKKNSSVLMELQRLFRAFRCLDSSISCTMNESKSTSLKDFLESLKSIMQMDYS
modifications: Synthetic sequence Amino acid sequence of the L19-murine IL4 conjugate of PCT/EP2014/053998
Take B4: the “therapeutic activity (tumour weight)” value in [1] was “shows therapeutic activity”.

Source of the values: US20160200789A1, “IL4 CONJUGATED TO ANTIBODIES AGAINST EXTRACELLULAR MATRIX COMPONENTS” (PHILOGEN S.P.A., priority 2013, published 2016).
